A short description of series [1]: Dissociation constants of complexes with M-β-CD by FTIR spectroscopy (Hill fit). In kind it is physicochemical. Conditions: X-PPh3, complex 1:1 molar ratio, PBS. From the text: FTIR spectroscopy provides valuable data on the interaction of molecules, including those applicable to characterize the non-covalent complexes of apiol-PPh3 (and analogues) with cyclodextrins and heparin. In the FTIR spectra of apiol-PPh3 and analogues (Figure 3a), one characteristic is the bands of valence oscillations of the bonds C=C of the aromatic system (1450–1650 cm^−1) overlapping with the bands of deformation oscillations C-H (1400–1500 cm^−1). The intensity of these peaks increases with the formation of non-covalent complexes of apiol-PPh3 and its analogues with cyclodextrins and heparin due to the transition of the solid phase into solution. Linear fitting of the intensity of peaks in the FTIR spectra on the cyclodextrin or heparin concentration (Section 2.3) in Hill coordinates allows determining the dissociation constants of the complexes (Table 2). The interactions of triphenylphosphine derivatives of allylbenzenes with γ-CD is rather weak (Kd 10 mM values). In the case of M-β-CD, the dissociation constants reach millimolar values, which is sufficient to obtain soluble forms of adjuvants (Table 2). Thus, the β-cyclodextrin derivatives are more suitable in terms of size for inclusion of the adjuvants studied. […] Comparing the values of the dissociation constants of alkylbenzenes and PPh3-derivatives complexes with cyclodextrins, we observed that these Kd values are close, which means that it is the allylbenzene-fragment (of apiol-PPh3) that plunges into the cyclodextrin cavity, and the triphenylphosphine radical looks outward (Figure 3b), which would provide the implementation of mitochondrial targeting of the developed formulations.
Non-covalent complexes of apiol, apiol-PPh3 and analogues with cyclodextrins (with different molar ratios) and heparin (15 kDa, 1:1 w/w) were obtained by adding solutions of cyclodextrins (100 mg/mL) or heparin (20 mg/mL) in PBS to apiol or apiol-PPh3 (or analogues) samples (2–3 mg). The excess of CDs or heparin was varied from 0.04 to 10 mol/mol. Then, mixtures were incubated for 1 h at 40 °C. Cyclodextrin or heparin are necessary for the solubilization of extremely poorly soluble compounds.
The ATR-FTIR spectra of samples (Section 3.3) were acquired using a Bruker Tensor 27 spectrometer equipped with a liquid N2 cooled MCT (mercury cadmium telluride) detector. Samples were placed in a thermostatic cell BioATR-II with ZnSe ATR element (Bruker, Germany). FTIR spectra were recorded from 850 to 4000 cm^−1 with 1 cm^−1 spectral resolution; 50 scans were accumulated and averaged. Spectral data were processed using the Bruker software system Opus 8.2.28 (Bruker, Germany). The spectrum of cyclodextrin or heparin in the corresponding concentration was subtracted from the spectra of the complexes. […]

Series [2] can be described thus: Solubility by UV spectroscopy (PBS, with and without M-β-CD). In kind it is physicochemical. The settings on record: for solubility: aqueous buffer, thermodynamic from solid. The protocol: On the contrary, their complexes with M-β-CD are soluble, and a clear peak in the UV spectrum is pronounced (225 nm). Based on UV spectra data in the presence of M-β-CD, the increase in solubility of apiol-PPh3 and analogues by a second order of magnitude is observed (Table 2).
The solubility of apiol and apiol-PPh3 (or analogues) in aqueous solution was determined by UV spectroscopy. UV spectra were recorded on the UltraSpec 2100 pro device (AmerSham Biosciences, Cambridge, UK) three times. The substances were dissolved in acetonitrile followed by recording the UV spectra at various cytostatics’ concentrations, and then we plotted calibration dependencies. Next, saturated solutions of substances in water were prepared, and the spectra of the aqueous solutions were recorded. Considering the extinction coefficients in water and acetonitrile to be approximately equal, the solubility was determined.

The nature of series [3]: in vitro. In kind it is cell-based. The settings on record: human. On the procedure: HEK293T are model normal (non-cancer) cells that are widely used to compare the selectivity of cytostatic formulations on cancer cells. According to the MTT test, the concentration of cytostatics of 100 µM causes the death of up to 85% of cancer cells A549 (Figure 4a), while for non-cancer cells (HEK293T), the dying rate is only 15–20%.
(§1) Adenocarcinomic human alveolar basal epithelial cells A549 cell lines (Manassas, VA, USA) were cultured in RPMI-1640 medium, linear cells of the embryonic kidney human epithelium (HEK293T) were grown in DMEM medium as described earlier. Cell lines were obtained from Lomonosov Moscow State University Depository of Live Systems Collection and Laboratory of Medical Biotechnology, Institute of Biomedical Chemistry (Moscow, Russia).
(§2) The cytotoxic activity of paclitaxel, Apiol-PPh3 and analogues was determined using an MTT test. Paclitaxel-adjuvant synergism coefficients (SC) were calculated as CV (paclitaxel) × CV (alone adjuvant)/CV (combo paclitaxel + adjuvant), where CV represents the cell viability. The synergy coefficient can be interpreted as strong synergy (SC > 2), synergy (2 > SC > 1.2), indifference/additivity (1.2 > SC > 0.8), antagonism (0.8 > SC > 0.5), and inhibition (SC < 0.5), as described earlier.

Series [4] relates to A549 cells. As to the kind of experiment: MTT assay, cytotoxic activity against A549. Format: cell-based. The settings on record: Homo sapiens, A549; X in M-β-CD 1:5 mol/mol; MTT; read-out: −lg (IC50) of X in M-β-CD against A549 (converted). The protocol: Concentrations of the active substance varied from 10^−2 to 10^−4 M. For MTT assay and biological experiments, substances in the concentration range from 10^−3 to 10^−9 M were studied by the dilution of initial ones in a cell growth medium or buffer.
as §1, §2
Background: Tetrazolium assays rely on reduction of a dye to a coloured formazan, in cell work by metabolically active cells.

Broadly, the solubility is how much of the substance goes into solution per volume. Broadly, the viability is a per cent measure of how many cells are alive, often set against a control. What is called IC50 is the concentration that gives 50% inhibition. `COc1cc(CCC[P+](c2ccccc2)(c2ccccc2)c2ccccc2)c(OC)c(OC)c1OC` [Allyltetramethoxybenzene-PPh3]: the “−lg Kd (X − M-β-CD)” value in series [1] is recorded as 3.1 ± 0.2. Also, in series [2], the “Solubility in the Presence of 0.05 M M-β-CD” value (“Solubility in the Presence” below) is 17000 ± 5000 µM and the solubility was 70 ± 10 µM. Also, in series [3], the viability at 10 µM worked out at 98 ± 1%, the viability at 100 µM amounted to 88 ± 3% and the viability at 300 µM was determined as 83 ± 4%. In addition, in series [4], the IC50 was 15.8 µM.

For `COc1cc(CCC[P+](c2ccccc2)(c2ccccc2)c2ccccc2)c(OC)c2c1OCO2` [Apiol-PPh3], the “−lg Kd (X − M-β-CD)” value in series [1] came to 2.9 ± 0.3. Further, in series [2], the “Solubility in the Presence” value turned out to be 15000 ± 2000 µM and the solubility was found to be 80 ± 10 µM. In series [3], the viability at 10 µM is 93 ± 2%, the viability at 100 µM came out at 82 ± 3% and the viability at 300 µM was determined as 71 ± 2%. Besides, the IC50 in series [4] was 1.58 µM.

With `COc1c(CCC[P+](c2ccccc2)(c2ccccc2)c2ccccc2)cc2c(c1OC)OCO2` [Dillapiol-PPh3], in series [1], the “−lg Kd (X − M-β-CD)” value worked out at 2.6 ± 0.2. In series [2], the “Solubility in the Presence” value was 8000 ± 1000 µM and the solubility worked out at 90 ± 10 µM. Besides, in series [3], the viability at 10 µM worked out at 95 ± 3%, the viability at 100 µM turned out to be 84 ± 5% and the viability at 300 µM came to 70 ± 5%. The IC50 in series [4] was 2.51 µM.

On to `COc1cc(CCC[P+](c2ccccc2)(c2ccccc2)c2ccccc2)cc2c1OCO2` [Myristicin-PPh3], for which, in series [1], the “−lg Kd (X − M-β-CD)” value is recorded as 3.0 ± 0.3. In addition, in series [2], the “Solubility in the Presence” value is 12000 ± 3000 µM and the concentration in solution (solubility) came to 40 ± 5 µM. In series [3], the viability at 10 µM is 97 ± 3%, the viability at 100 µM was 91 ± 2% and the viability at 300 µM was found to be 75 ± 3%. Moreover, in series [4], the IC50 is 5.01 µM.

(Values after paper PMC10747112, “Triphenylphosphine Derivatives of Allylbenzenes Express Antitumor and Adjuvant Activity When Solubilized with Cyclodextrin-Based Formulations” (Pharmaceuticals, 2023).)
